Source: US10722518B2, “Oxazine derivative for use in the treatment or prevention of cerebral amyloid angiopathy” (Novartis AG, priority 2016, dated 2020)
Read-outs that look alike come from different tables or passages of the source.

Key:
Format in all cases: in vivo
[1] = 3-month dose-ranging study: plasma pharmacokinetics on Day 91; details: human, oral, read-out: expected plasma Cmax,ss
[2] = 13-week oral safety study in aged APP23 mice: plasma and brain concentrations of Compound 1 (toxicokinetics); details: female, APP23, mouse, 0.3 g/kg food
Method: Sections of brain were collected at necropsy from all scheduled animals. […] Rest of the brain was fixed in 10% neutral-buffered formalin.
Blood was obtained from all the animals at necropsy. Approximately 0.3 mL of whole blood was collected after euthanasia from the vena cava into tubes containing EDTA as anticoagulant. The tubes were placed in ice water during the sampling period. Plasma was separated thereafter by centrifugation (10 min, 1270 G, +4° C.) and transferred to one uniquely labelled clear tube (1.8 mL NUNC 2D coded tubes from Thermo) and frozen at −70° C. or below.
About 100 to 200 mg of brain tissue were collected, weighed into 1.8 mL NUNC 2D coded tubes from Thermo, and frozen at −70° C. or below.

Aβ40 in CSF = experiment: First-in-human single and multiple ascending oral dose study: Aβ40 in CSF; details: for Dose-dependent lowering of Aβ40 concentrations in CSF, up to: healthy elderly subjects
Method: (§1) The purpose of this study was to determine the single and multiple maximum tolerated dose of Compound 1 and to assess the pharmacokinetic/pharmacodynamic (PK/PD) relationship using Aβ in CSF as primary PD biomarker.
Pharmacodynamic assessments using Aβ concentrations in CSF as primary biomarker of drug action were also been applied in healthy elderly subjects. Dose-dependent lowering of Aβ40 concentrations was determined up to approximately 80% and 90% after single and multiple dosing, respectively (Tables 9 and 10, FIG. 7).
In the completed first-in-human and 3-month dose-ranging safety and tolerability clinical studies described in Examples 3 and 4, Aβ concentrations in CSF were obtained by means of lumbar punctures before the first dose (baseline) and respectively after 2 weeks and 3 months of multiple dosing. ApoE4 genotype also was obtained in the subjects who consented. The percent change from baseline in Aβ40 and Aβ42 concentrations was calculated in subjects who took the study treatment and had no major protocol deviation with potential impact on the evaluation of the pharmacodynamic effect. Tables 13 to 16 below provide summary statistics of the percent change from baseline by treatment group and ApoE genotype (E4 heterozygotes versus E4 non-carriers). Only one subject with CSF data was E4 homozygote (from the 3-month dose-ranging safety and tolerability study).

[3] = First-in-human study: safety and tolerability; details: healthy elderly subjects ≥60 years
Excerpt: as §1

With C[C@@]1(c2nc(NC(=O)c3ncc(C(F)(F)F)cc3Cl)ccc2F)CO[C@@](C)(C(F)(F)F)C(N)=N1 [Compound 1, N-(6-((3R,6R)-5-amino-3,6-dimethyl-6-(trifluoromethyl)-3,6-dihydro-2H-1,4-oxazin-3-yl)-5-fluoropyridin-2-yl)-3-chloro-5-(trifluoromethyl)picolinamide] the Cmax ([1]; once daily dose of 15 mg) was 70 to 170 ng/mL, the Cmax ([1]; once daily dose of 50 mg) was 200 to 500 ng/mL and the concentration at 13 weeks ([2]; brain (cerebellum, level 7), end of the study) was 4030 ng/g. For the same molecule, the Kp at 96 day ([2]; brain / plasma, day 96, read-out: brain concentration compared to plasma, range) was 2.2 to 6.1, the Kp at 13 weeks ([2]; brain / plasma, end of the study, read-out: average of the ratio brain over plasma) was 3.3 and the concentration at 13 weeks ([2]; plasma, end of the study) was 1210 ng/mL. For the same molecule, the “Dose-dependent lowering of Aβ40 concentrations in CSF, up to” value (Aβ40 in CSF; multiple dosing) was about 90%, the “Aβ40 in CSF percent change from baseline, Median” value (Aβ40 in CSF; single dose 10 mg, 24 h) was −14.3% and the “Dose-dependent lowering of Aβ40 concentrations in CSF, up to” value (Aβ40 in CSF; single dosing) was “approximately 80%”. For the same molecule, the safety and tolerability ([3]; 300 mg QD over two weeks) was “safe and tolerated” and the safety and tolerability ([3]; 750 mg single dose) was “safe and tolerated”.
